The values that follow come from patent publication US20210301318A1, “A BIOMARKER AND TARGET FOR DIAGNOSIS, PROGNOSIS AND TREATMENT OF ANKYLOSING SPONDYLITIS” (priority 2018, published 2021).

Molecules are shown by their SMILES. Entries after “also recorded” stand apart in the source; their conditions may differ.

Assay [1] concerns AS MSCs. The experiment in a line: Mineralization of AS MSCs under osteogenic induction (Alizarin red S staining). Conditions: 100 μM levamisole, 100 μM beryllium sulfate, or 1 μg/ml pamidronate. The format is cell-based, human.
Method: The same passages (p3 to p5) of AS MSCs and N MSCs were compared.
The first culture condition was osteogenic induction, whereby α-MEM was supplemented with 10% fetal bovine serum (Gibco), 50 μg/mL ascorbate-2 phosphate (Sigma-Aldrich, St. Louis, Mo., USA), 10 nmol/L dexamethasone (Sigma-Aldrich), and 10 mmol/L β-glycerophosphate (Sigma-Aldrich). […] The medium was changed every 3 days. After appearance of the morphologic features of differentiation, cells were fixed with 4% paraformaldehyde. Cells treated by osteogenic culture were stained for Alizarin red S (Sigma-Aldrich) for mineralization. Quantification of Alizarin red S staining was conducted by measurement of the optical density (OD) of extracted dye at 550 nm with a plate reader (Molecular Devices, Sunnyvale, Calif., USA).
After morphological differentiation, cells were subjected to Alizarin red S staining.
In assay [2] the target is T1, TNAP (Homo sapiens, UniProt P05186).
T1 sequence (P05186 18-501 limits assumed): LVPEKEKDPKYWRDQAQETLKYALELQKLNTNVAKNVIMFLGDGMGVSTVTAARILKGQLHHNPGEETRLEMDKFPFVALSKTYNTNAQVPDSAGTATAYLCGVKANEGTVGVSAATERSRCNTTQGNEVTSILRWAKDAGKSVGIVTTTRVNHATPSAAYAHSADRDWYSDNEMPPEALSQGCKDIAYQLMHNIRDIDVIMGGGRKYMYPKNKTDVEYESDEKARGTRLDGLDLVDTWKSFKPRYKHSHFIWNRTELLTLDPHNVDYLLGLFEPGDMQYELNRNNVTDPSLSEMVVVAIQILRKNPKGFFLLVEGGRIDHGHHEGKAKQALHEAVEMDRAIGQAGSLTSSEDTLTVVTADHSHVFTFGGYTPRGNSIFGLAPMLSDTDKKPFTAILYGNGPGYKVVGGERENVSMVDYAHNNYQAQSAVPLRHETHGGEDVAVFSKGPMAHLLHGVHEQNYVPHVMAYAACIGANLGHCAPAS
Conditions: from references 22-24; cited from earlier work.

Assay [3] has as its system NOD-SCID mice implanted with AS MSCs. The experiment in a line: New bony apposition in NOD-SCID mice implanted with AS MSCs (micro-computed tomography of lumbar spine). The assay is classed as in vivo. Conditions: daily oral administration: levamisole 10 mg/kg, beryllium sulfate 7.5 mg/kg, pamidronate 0.3 mg/kg; micro-CT 3 weeks after implantation. As for the experimental part:
The animal experimental protocol was approved by the Animal Care and Utilization Committee of Taipei Tzu Chi General Hospital. NOD-SCID mice (8-10 weeks) were purchased from BioLASCO (Taipei, Taiwan) and maintained in a specific pathogen-free environment. Human MSCs were treated with β-glycerophosphate in culture for 5 days, embedded in fibrin (10^6 cells in 5 μl fibrin) (Baxter, Vienna, Austria) and implanted in areas adjacent to right lamina of lumbar spine segments L4 to L5 in NOD-SCID mice. The lamina of lumbar spine was decorticated using the forceps. Mice were fed with a 0.9% phosphate diet (Dyets, Bethlehem, Pa., USA) after surgery. Micro-computed tomography (SkyScan 1076; Kontich, Belgium) over lumbar spines was undertaken 3 weeks after implantation. Bone mineral density over the femur measured by micro-computed tomography in NOD-SCID mice following implantation with AS MSCs and daily oral administration of H2O levamisole (10 mg/kg), beryllium sulfate tetrahydrate (7.5 mg/kg), or pamidronate (0.3 mg/kg) for 12 weeks. Quantitative volumes of new bony apposition were acquired by Bruker CT-Volume version 2.0 software.

In assay [4] the test system is AS patients. Conditions: cited from earlier work.

Take `O.O.O.O.O=S(=O)([O-])[O-].[Be+2]` [beryllium sulfate, BeSO4•4H2O]: in assay [1], the “accelerated mineralization in AS MSCs (ARS staining)” value (from here on “accelerated mineralization”) is recorded as “blocked effectively”. Besides, the “type of TNAP inhibition” value in assay [2] was “competitive”.

As to `c1ccc([C@H]2CN3CCSC3=N2)cc1` [levamisole, (6S)-6-phenyl-2H,3H,5H,6H-imidazo[2,1-b][1,3]thiazole], the “accelerated mineralization” value in assay [1] is reported as “blocked effectively; also recorded: inhibit this abnormal mineralization”. Also, the “new bony apposition induced by AS MSCs” value in assay [3] was “blocked”. In assay [2], the “type of TNAP inhibition” value is on record as “uncompetitive”. Also, in assay [4] (some studies, references 26-29), the “inflammation of AS patients” value is given as “marginally reduce inflammation”.

Regarding `NCCC(O)(P(=O)(O)O)P(=O)(O)O` [pamidronate], in assay [1], the “accelerated mineralization” value was “blocked effectively; also recorded: inhibit this abnormal mineralization”. In addition, the “new bony apposition induced by AS MSCs” value in assay [3] is reported as “blocked”. Further, in assay [2], the “type of TNAP inhibition” value is “uncompetitive”. In addition, the “serum BAP levels” value in assay [4] (one study, reference 34) is reported as “lowering serum BAP levels”.
